In patent US12448388B2, “PRMT5 inhibitors and uses thereof” (Gilead Sciences, Inc., priority 2023, dated 2025):

System: HCT116 MTAP-deleted cell lines
Assay: Cell viability assay (CellTiter-Glo, 7 days), HCT116 MTAP-deleted
Type: cell-based
Details: Homo sapiens, HCT-116; cell viability assay, HCT116 MTAP-deleted; class symbols; read-out: CC50
In short: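 First, compounds are serially diluted in DMSO and dispensed into plates, which are frozen until seeding. Next, cells are added and incubated 7 days at 37 °C, 5% CO2, 90% humidity. Finally, CellTiter-Glo reagent is added and luminescence is measured to derive CC50.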

SMILES	CC50
CN(C(=O)c1cc2c(cc1C1CC1)nc(N)c1cncn12)[C@@H]1COc2cc(C(F)(F)F)ccc21 [Ff-614, (S)-4-amino-7-cyclopropyl-N-methyl-N-(6-(trifluoromethyl)-2,3-dihydrobenzofuran-3-yl)imidazo[1,5-a]quinoxaline-8-carboxamide]	< 100 nM
Nc1nc2cc(F)c(C(=O)N3CCC[C@@H]4Oc5cc(C(F)(F)F)ccc5[C@@H]43)cc2n2cnc(F)c12 [Ff-621, (4-amino-3,7-difluoroimidazo[1,5-a]quinoxalin-8-yl)((4aS,9bS)-7-(trifluoromethyl)-3,4,4a,9b-tetrahydrobenzofuro[3,2-b]pyridin-1(2H)-yl)methanone]	100 to 1000 nM
Nc1nc2cc(F)c(C(=O)N3CCC[C@@H]4Oc5cc(C(F)(F)F)ccc5[C@@H]43)cc2n2c(F)ncc12 [Ff-622, (4-amino-1,7-difluoroimidazo[1,5-a]quinoxalin-8-yl)((4aS,9bS)-7-(trifluoromethyl)-3,4,4a,9b-tetrahydrobenzofuro[3,2-b]pyridin-1(2H)-yl)methanone]	< 100 nM
Cc1ncc2c(N)nc3cc(F)c(C(=O)N4CC[C@H]5C[C@@H]4c4ccc(C(F)(F)F)nc4O5)cc3n12 [Ff-627, (4-amino-7-fluoro-1-methylimidazo[1,5-a]quinoxalin-8-yl)((2S,6R)-9-(trifluoromethyl)-3,4-dihydro-2H-2,6-methanopyrido[2,3-b][1,5]oxazocin-5(6H)-yl)methanone]	< 100 nM
Cc1ncc2c(N)nc3cc(F)c(C(=O)N4C[C@@H](C)O[C@@H]5Cc6cc(C(F)(F)F)ccc6[C@@H]54)cc3n12 [Ff-629, (4-amino-7-fluoro-1-methylimidazo[1,5-a]quinoxalin-8-yl)((2R,4aS,9aR)-2-methyl-7-(trifluoromethyl)-2,3,9,9a-tetrahydroindeno[2,1-b][1,4]oxazin-4(4aH)-yl)methanone]	< 100 nM
C[C@@H]1CN(C(=O)c2ccc3nc(N)c4cncn4c3c2)[C@H]2c3ccc(C(F)(F)F)cc3C[C@H]2O1 [Ff-630, (4-aminoimidazo[1,5-a]quinoxalin-8-yl)((2R,4aS,9aR)-2-methyl-7-(trifluoromethyl)-2,3,9,9a-tetrahydroindeno[2,1-b][1,4]oxazin-4(4aH)-yl)methanone]	< 100 nM
Cc1ncc2c(N)nc3ccc(C(=O)N4C[C@@H](C)O[C@@H]5Cc6cc(C(F)(F)F)ccc6[C@@H]54)cc3n12 [Ff-631, (4-amino-1-methylimidazo[1,5-a]quinoxalin-8-yl)((2R,4aS,9aR)-2-methyl-7-(trifluoromethyl)-2,3,9,9a-tetrahydroindeno[2,1-b][1,4]oxazin-4(4aH)-yl)methanone]	100 to 1000 nM
Cc1ncn2c1c(N)nc1cnc(C(=O)N3CC[C@H]4C[C@@H]3c3cc(F)c(C(F)(F)F)cc3O4)cc12 [Ff-635, (4-amino-3-methylimidazo[1,5-a]pyrido[3,4-e]pyrazin-8-yl)((2S,6R)-8-fluoro-9-(trifluoromethyl)-3,4-dihydro-2H-2,6-methanobenzo[b][1,5]oxazocin-5(6H)-yl)methanone]	< 100 nM
Nc1nc2cc(F)c(C(=O)N3CC[C@H]4C[C@@H]3c3cc(F)c(C(F)(F)F)cc3O4)cc2n2cncc12 [Ff-636, (4-amino-7-fluoroimidazo[1,5-a]quinoxalin-8-yl)((2S,6R)-8-fluoro-9-(trifluoromethyl)-3,4-dihydro-2H-2,6-methanobenzo[b][1,5]oxazocin-5(6H)-yl)methanone]	< 100 nM
CN(C(=O)c1cc2c(cn1)nc(N)c1cncn12)[C@@H]1COc2cc(C34CC(C(F)(F)F)(C3)C4)ccc21 [Ff-642, (S)-4-amino-N-methyl-N-(6-(3-(trifluoromethyl)bicyclo[1.1.1]pentan-1-yl)-2,3-dihydrobenzofuran-3-yl)imidazo[1,5-a]pyrido[3,4-e]pyrazine-8-carboxamide]	100 to 1000 nM
Nc1nc2ccc(C(=O)N3C[C@@H](F)C[C@@H]4Oc5cc(C(F)(F)F)ccc5[C@@H]43)cc2n2cncc12 [Ff-649, (4-aminoimidazo[1,5-a]quinoxalin-8-yl)((3S,4aS,9bS)-3-fluoro-7-(trifluoromethyl)-3,4,4a,9b-tetrahydrobenzofuro[3,2-b]pyridin-1(2H)-yl)methanone]	< 100 nM
Cc1ncc2c(N)nc3cc(F)c(C(=O)N4CCC[C@@H]5Oc6c(ccc(C(F)(F)F)c6F)[C@@H]54)cc3n12 [Ff-651, (4-amino-7-fluoro-1-methylimidazo[1,5-a]quinoxalin-8-yl)((4aS,9bS)-6-fluoro-7-(trifluoromethyl)-3,4,4a,9b-tetrahydrobenzofuro[3,2-b]pyridin-1(2H)-yl)methanone]	< 100 nM
CN(C(=O)c1cc2c(cc1F)nc(N)c1cncn12)[C@@H]1COc2cc(S(F)(F)(F)(F)F)ccc21 [Ff-652, (S)-4-amino-7-fluoro-N-methyl-N-(6-(pentafluoro-16-sulfaneyl)-2,3-dihydrobenzofuran-3-yl)imidazo[1,5-a]quinoxaline-8-carboxamide]	< 100 nM
CN(C(=O)c1cc2c(cc1F)nc(N)c1cncn12)[C@@H]1COc2cc(C(F)F)c(Cl)cc21 [Ff-653, (S)-4-amino-N-(5-chloro-6-(difluoromethyl)-2,3-dihydrobenzofuran-3-yl)-7-fluoro-N-methylimidazo[1,5-a]quinoxaline-8-carboxamide]	< 100 nM
C[C@H]1C[C@@H](N(C)C(=O)c2cc3c(cc2F)nc(N)c2cncn23)c2ccc(C(F)(F)F)cc21 [Ff-654, 4-amino-7-fluoro-N-methyl-N-((1R,3S)-3-methyl-5-(trifluoromethyl)-2,3-dihydro-1H-inden-1-yl)imidazo[1,5-a]quinoxaline-8-carboxamide]	< 100 nM
Nc1nc2cc(F)c(C(=O)N3CCC[C@@H]4Oc5cc(-c6cnn(C(F)(F)F)c6)ccc5[C@@H]43)cc2n2cncc12 [Ff-655, (4-amino-7-fluoroimidazo[1,5-a]quinoxalin-8-yl)((4aS,9bS)-7-(1-(trifluoromethyl)-1H-pyrazol-4-yl)-3,4,4a,9b-tetrahydrobenzofuro[3,2-b]pyridin-1(2H)-yl)methanone]	< 100 nM
Cc1ncc2c(N)nc3cnc(C(=O)N4C[C@@H](F)C[C@@H]5Oc6cc(C(F)(F)F)ccc6[C@@H]54)cc3n12 [Ff-656, (4-amino-1-methylimidazo[1,5-a]pyrido[3,4-e]pyrazin-8-yl)((3S,4aS,9bS)-3-fluoro-7-(trifluoromethyl)-3,4,4a,9b-tetrahydrobenzofuro[3,2-b]pyridin-1(2H)-yl)methanone]	< 100 nM
Cc1ncc2c(N)nc3cc(F)c(C(=O)N4C[C@@H](F)C[C@@H]5Oc6cc(C(F)(F)F)ccc6[C@@H]54)cc3n12 [Ff-657, (4-amino-7-fluoro-1-methylimidazo[1,5-a]quinoxalin-8-yl)((3S,4aS,9bS)-3-fluoro-7-(trifluoromethyl)-3,4,4a,9b-tetrahydrobenzofuro[3,2-b]pyridin-1(2H)-yl)methanone]	< 100 nM
Cc1ncn2c1c(N)nc1cc(F)c(C(=O)N3C[C@@H](F)C[C@@H]4Oc5cc(C(F)(F)F)ccc5[C@@H]43)cc12 [Ff-659, (4-amino-7-fluoro-3-methylimidazo[1,5-a]quinoxalin-8-yl)((3S,4aS,9bS)-3-fluoro-7-(trifluoromethyl)-3,4,4a,9b-tetrahydrobenzofuro[3,2-b]pyridin-1(2H)-yl)methanone]	< 100 nM
Nc1nc2cc(F)c(C(=O)N3C[C@@H](F)C[C@@H]4Oc5cc(OC(F)(F)F)ccc5[C@@H]43)cc2n2cncc12 [Ff-666, (4-amino-7-fluoroimidazo[1,5-a]quinoxalin-8-yl)((3S,4aS,9bS)-3-fluoro-7-(trifluoromethoxy)-3,4,4a,9b-tetrahydrobenzofuro[3,2-b]pyridin-1(2H)-yl)methanone]	< 100 nM
Nc1nc2cc(F)c(C(=O)N3CCC4(CCc5ccccc54)C3)cc2n2cncc12 (centres unmarked) [Ff-670, (4-amino-7-fluoroimidazo[1,5-a]quinoxalin-8-yl)(2,3-dihydrospiro[indene-1,3′-pyrrolidin]-1′-yl)methanone]	100 to 1000 nM
C[C@@H]1C[C@@H](N(C)C(=O)c2cc3c(cc2F)nc(N)c2cncn23)c2ccc(C(F)(F)F)cc21 [Ff-671, 4-amino-7-fluoro-N-methyl-N-((1R,3R)-3-methyl-5-(trifluoromethyl)-2,3-dihydro-1H-inden-1-yl)imidazo[1,5-a]quinoxaline-8-carboxamide]	< 100 nM
CN(C(=O)c1cc2c(cc1F)nc(N)c1cncn12)[C@@H]1COc2c1ccc(OC(F)F)c2F [Ff-672, (S)-4-amino-N-(6-(difluoromethoxy)-7-fluoro-2,3-dihydrobenzofuran-3-yl)-7-fluoro-N-methylimidazo[1,5-a]quinoxaline-8-carboxamide]	< 100 nM
Nc1nc2cc(F)c(C(=O)N3CCC4(CC4)[C@@H]4Oc5cc(C(F)(F)F)ccc5[C@@H]43)cc2n2cncc12 [Ff-676, (4-amino-7-fluoroimidazo[1,5-a]quinoxalin-8-yl)((4aS,9bS)-7-(trifluoromethyl)-2,3,4a,9b-tetrahydro-1H-spiro[benzofuro[3,2-b]pyridine-4,1′-cyclopropan]-1-yl)methanone]	< 100 nM
Nc1nc2cnc(C(=O)N3CCC4(CC4)[C@@H]4Oc5cc(C(F)(F)F)ccc5[C@@H]43)cc2n2cncc12 [Ff-677, (4-aminoimidazo[1,5-a]pyrido[3,4-e]pyrazin-8-yl)((4aS,9bS)-7-(trifluoromethyl)-2,3,4a,9b-tetrahydro-1H-spiro[benzofuro[3,2-b]pyridine-4,1′-cyclopropan]-1-yl)methanone]	< 100 nM
Cc1ncc2c(N)nc3cnc(C(=O)N4CCC5(CC5)[C@@H]5Oc6cc(C(F)(F)F)ccc6[C@@H]54)cc3n12 [Ff-679, (4-amino-1-methylimidazo[1,5-a]pyrido[3,4-e]pyrazin-8-yl)((4aS,9bS)-7-(trifluoromethyl)-2,3,4a,9b-tetrahydro-1H-spiro[benzofuro[3,2-b]pyridine-4,1′-cyclopropan]-1-yl)methanone]	< 100 nM
